Columns and labels:
[1] = test system: NCI-H1648; assay: Cell viability (CellTiterGlo) combination dose matrix in NCI-H1648; format: cell-based, human; conditions: combination with c-Met inhibitor, 72 h, excluding highest concentration
Description: (§1) Compound stocks of both compounds are individually prepared in DMSO. Compounds are serially diluted using a Tecan dispenser to cover a ˜1000× range of concentrations. […] Both single agent and combinations are tested at multiple concentrations, along with controls and one self-cross.
(§2) The cell lines used in this study are purchased from American Type Cell Collection, including human non small cell lung cancer cell lines EBC-1 (which bears c-Met amplification), NCI-H1993 (which bears c-MET amplified), NCI-H1648 (which bears c-Met amplification), NCI-H1573 (which bears c-Met amplification and KRAS mutation) and HCC2935 (EGFR mutation). All cell lines are maintained in their respective culture medium as specified by the provider.
(§3) For the assessment of combination effects, cells are seeded into 384-well plates at 500 cells/well and incubated overnight. […]
(§4) Effects of single agents as well as their combination on cell viability is assessed after 72 hours of incubation at 37° C./5% CO2 by quantification of cellular ATP levels (CellTiterGlo, Promega) using 25 μL reagent/well and n=2 replicate plates per condition. The number/viability of cells at time of compound addition is likewise assessed and used to estimate the population doubling time of a cell line.
(§5) For untreated and treated levels U and T, inhibition is calculated using the formula I=1−T/U, which ranges from 0% to 100% for complete inhibition. […]
(§6) The Loewe expectation [Loewe S., Ergebn Physiol 27: 47-187 (1928)) is calculated at each dose pair CX,Y by finding the inhibition ILoewe such that (CX/ICX)+(CY/ICY)=1, and ICX,Y are the effective concentrations at ILoewe for the fitted single agent curves, using numerical optimization [Berenbaum M C, J Theor Biol 114: 413-431 (1985)]. The “synergy score” S is calculated by averaging the difference between Idata and ILoewe across all the tested combination dose points, excluding the highest concentration point in the dose matrix, which is most likely to be dominated by drug off-target effects. […]

[2] = test system: U-87 MG human glioblastoma xenograft; assay: U-87 MG xenograft tumor growth inhibition and tumor growth delay; format: in vivo, nude mice; conditions: for T/C or T/T0: D13
Description: In this experiment, the U-87 MG human glioblastoma xenograft model is used to assess the anti-tumor efficacy of the PI3K inhibitor COMPOUND C and c-Met inhibitor 2-fluoro-N-methyl-4-[7-quinolin-6-yl-methyl)-imidazo[1,2-b][1,2,4]triazin-2yl]benzamide as single agents or in combination. U-87 MG tumor cells obtained from the National Cancer Institute are reported to be homozygous for likely oncogenic variants of CDKN2A, CDKN2C, CDKN2a, and PTEN; no mutations are detected in MET, PIK3CA, or 58 other genes that are frequently altered in neoplastic cells; and HGF expressing.
Mice are treated daily for 21 days with 17.7 and 35.3 mg/kg of the c-Met inhibitor and 32.7 mg/kg COMPOUND C monotherapies, and with the c-Met inhibitor/COMPOUND C dual therapy at 17.7:32.7. An c-Met inhibitor/COMPOUND C combination at the 58.8:5.4 mg/kg dose ratio was included in the study. The control mice received both vehicles, and a standard preclinical temozolomide regimen monitored tumor model performance. The oral treatments began on Day 1 (D1) in nude mice with established subcutaneous tumors. Each animal was euthanized when its tumor reached the predetermined 2000 mm3 endpoint volume, or on D60, whichever came first. The study was terminated on D51. […] Overall efficacy was determined from the times required for tumors to progress to the volume endpoint, and from D51 survival and regression rates. This report describes the methods and results of the U87MG-e326 tumor growth delay experiment.
The animals are fed ad libitum water (reverse osmosis, 1 ppm CI) and NIH 31 Modified and Irradiated Lab Diet® consisting of 18.0% crude protein, 5.0% crude fat, and 5.0% crude fiber. The mice are housed on irradiated Enrich-O'cobs™ Laboratory Animal Bedding in static microisolators on a 12-hour light cycle at 20-22° C. (68-72° F.) and 40-60% humidity.
The U-87 MG tumor line is obtained from the American Type Culture Collection and maintained by serial engraftment in nude mice. A tumor fragment (1 mm^3) is implanted subcutaneously into the right flank of each test mouse. Tumors are calipered in two dimensions to monitor growth as their mean volume approached the desired 100-150 mm^3 range. Tumor size, in mm^3, was calculated from: Tumor Volume=(width^2×length)/2, where width and length (in mm) are measurements of the tumor. Tumor weight can be estimated with the assumption that 1 mg is equivalent to 1 mm^3 of tumor volume. Fourteen days after tumor cell implantation, on D1 of the study, mice with individual tumor volumes of 63-196 mm^3 are sorted into seven groups, with group mean tumor volumes of 122-127 mm^3.
The c-Met inhibitor 2-fluoro-N-methyl-4-[7-quinolin-6-yl-methyl)-imidazo[1,2-b][1,2,4]triazin-2yl]benzamide (di-HCl salt, 84.98% free base) is stored at 4° C. and is added to deionized water at 2× the final concentration and sonicated until dissolved. An equal volume of 0.5% methylcellulose and 0.1% Tween® 80 in deionized water is added to provide a 5.884 mg/mL dosing solution in 0.25% methylcellulose and 0.05% Tween® 80 in deionized water (Vehicle 1). Portions of this solution are diluted with Vehicle 1 to provide 3.53 and 1.765 mg/mL dosing solutions.
COMPOUND C (HCl salt, 91.85% free base) is stored at −20° C. and is added to 1% Tween® 80 in deionized water and sonicated to obtain a uniform suspension at 2× the final concentration. […] The 0.544 mg/mL dosing suspension is obtained by diluting a portion of the first suspension with Vehicle 2.

[3] = test system: A172; assay: CellTiter-Glo cell viability dose matrix in A172 glioblastoma cells; format: cell-based, human; conditions: A172 (PTEN mutant, low HGF)
Description: (§7) The PI3K inhibitor COMPOUND C and the c-MET receptor tyrosine kinase inhibitor 2-fluoro-N-methyl-4-[7-quinolin-6-yl-methyl)-imidazo[1,2-b][1,2,4]triazin-2yl]benzamide are evaluated in combination in glioblastoma tumor models. COMPOUND C (10 mM) and 2-fluoro-N-methyl-4-[7-quinolin-6-yl-methyl)-imidazo[1,2-b][1,2,4]triazin-2yl]benzamide (10 mM) are dissolved in DMSO, and are stored in aliquots at −20° C.
(§8) Human Glioblastoma cell lines, U-87 MG (PTEN mutant and HGF expressing line), H4 (PTEN mutant and HGF expressing line), A172 (PTEN mutant line with low HGF expression level) and LN-229 (PTEN wildtype and HGF low) are purchased from American Type Cell Collection and are maintained in a humidified incubator at 37° C. in 5% CO2 in recommended media. All four cell lines express detected MET at the mRNA level.
(§9) The cells are passaged twice a week and the medium is changed every 2 to 3 days. […]
(§10) Cell viability is determined by measuring cellular ATP content using the CellTiter-Glo® (CTG) luminescent cell viability assay (Promega). […] An equal volume of the CTG reagents is added to each well at the end of the compound treatment and luminescence is recorded on an Envision plate reader (Perkin Elmer). Reduced and enhanced luminescent signal values (responses) are calculated relative to untreated (control) cells. […]

[4] = test system: EBC-1; assay: Cell viability (CellTiterGlo) combination dose matrix in EBC-1; format: cell-based, human; conditions: combination with c-Met inhibitor, 72 h, excluding highest concentration, 0 no inhibition, 1 = 100% inhibition/stasis, 2 = cell death
Description: as §1, §2, §3, §4, §5, §6

[5] = test system: NCI-H1573; assay: Cell viability (CellTiterGlo) combination dose matrix in NCI-H1573; format: cell-based, human; conditions: combination with c-Met inhibitor, 72 h, excluding highest concentration
Description: as §1, §2, §3, §4, §5, §6

[6] = test system: HCC2935; assay: Cell viability (CellTiterGlo) combination dose matrix in HCC2935; format: cell-based, human; conditions: combination with c-Met inhibitor, 72 h, excluding highest concentration
Description: as §1, §2, §3, §4, §5, §6

[7] = test system: LN-229; assay: CellTiter-Glo cell viability dose matrix in LN-229 glioblastoma cells; format: cell-based, human; conditions: LN229 (PTEN wildtype, HGF low)
Description: as §7, §8, §9, §10

[8] = test system: NCI-H1993; assay: Cell viability (CellTiterGlo) combination dose matrix in NCI-H1993; format: cell-based, human; conditions: combination with c-Met inhibitor, 72 h, excluding highest concentration
Description: as §1, §2, §3, §4, §5, §6

[9] = test system: U-87 MG; assay: CellTiter-Glo cell viability dose matrix in U-87 MG glioblastoma cells; format: cell-based, human; conditions: U87 MG (PTEN mutant, HGF expressing)
Description: as §7, §8, §9, §10

[10] = test system: H4; assay: CellTiter-Glo cell viability dose matrix in H4 glioblastoma cells; format: cell-based, human; conditions: H4 (PTEN mutant, HGF expressing)
Description: as §7, §8, §9, §10

[11] = COMPOUND C 32.7 mg/kg (30 mg/kg free base) p.o. qd x21

Structure (SMILES): Nc1cc(C(F)(F)F)c(-c2cc(N3CCOCC3)nc(N3CCOCC3)n2)cn1 [COMPOUND C, 5-(2,6-di-morpholin-4-yl-pyrimidin-4-yl)-4-trifluoromethyl-pyridin-2-ylamine]
- MaxGI (GImax, combination effectiveness) [1]: 1.78
- increase of median TTE ([2]; COMPOUND C 30 mg/kg free base p.o. qd x21): 9.3 days
- % TGD [2, 11]: 79%
- T/C or T/T0 [2, 11]: 31%
- T/C or T/T0 ([2]; COMPOUND C 32.7 mg/kg (30 mg/kg free base) p.o. qd x21, listed as CMPD. C): 31%
- Median TTE ([2]; COMPOUND C 32.7 mg/kg (30 mg/kg free base) p.o. qd x21, endpoint 2000 mm3): 21.0 days
- Regress. ([2]; COMPOUND C 32.7 mg/kg p.o. qd x21, number of animals): 0
- anti-proliferative activity (single agent) [3]: concentration dependent anti-proliferative activity
- MaxGI (GImax, combination effectiveness) [4]: 1.83
- MaxGI (GImax, combination effectiveness) [5]: 1.54
- MaxGI (GImax, combination effectiveness) [6]: 1.37
- anti-proliferative activity (single agent) [7]: less active
- MaxGI (GImax, combination effectiveness) [8]: 1.67
- anti-proliferative activity (single agent) [9]: concentration dependent anti-proliferative activity
- anti-proliferative activity (single agent) [10]: concentration dependent anti-proliferative activity

Source: patent publication US20150216870A1, “Combination of PI3K Inhibitor and C-Met Inhibitor” (Novartis AG, priority 2012, published 2015)
